From ChEMBL document CHEMBL4296182, “CO-ADD screening of NIH NCI Diversity Set V”
≈ marks a conversion by molar mass, not a printed value.

Key:
Pseudomonas aeruginosa = test: microbe, parasite or virus in culture; settings: ATCC 27853, 18 h, ASSAY_TEST Inhibition of Bacterial Growth, detection method Absorption (OD600), MEDIA CAMHB, plate type 384well, NBS, CORNING #3640
Description: Antibacterial activity against Pseudomonas aeruginosa ATCC 27853 (CO-ADD:GN_042); MIC in CAMBH media using NBS plates, by OD(600)

Klebsiella pneumoniae = test: microbe, parasite or virus in culture; settings: ATCC 700603, 18 h, ASSAY_TEST Inhibition of Bacterial Growth, detection method Absorption (OD600), MEDIA CAMHB, plate type 384well, NBS, CORNING #3640
Description: Antibacterial activity against Klebsiella pneumoniae MDR ATCC 70063 (CO-ADD:GN_003); MIC in CAMBH media using NBS plates, by OD(600)

Acinetobacter baumannii = test: microbe, parasite or virus in culture; settings: ATCC 19606, 18 h, ASSAY_TEST Inhibition of Bacterial Growth, detection method Absorption (OD600), MEDIA CAMHB, plate type 384well, NBS, CORNING #3640
Description: Antibacterial activity against Acinetobacter baumannii ATCC 19606 (CO-ADD:GN_034); MIC in CAMBH media using NBS plates, by OD600

Staphylococcus aureus = test: microbe, parasite or virus in culture; settings: ATCC 43300, 18 h, ASSAY_TEST Inhibition of Bacterial Growth, detection method Absorption (OD600), MEDIA CAMHB, plate type 384well, NBS, CORNING #3640
Description: Antibacterial activity against Staphylococcus aureus MRSA ATCC 43300 (CO-ADD:GP_020); MIC in CAMBH media, using NBS plates, by OD(600)

HEK293 = test: cells; type: functional; settings: Homo sapiens, ATCC CRL1573, HEK293; ASSAY_TEST Inhibition of Cell Viability; detection method Resazurin; Fluorescence (ex560/em590); MEDIA DMEM with 10% FBS; plate type 384well; TC; CORNING #3712; time 18 hr
Candida albicans = test: microbe, parasite or virus in culture; settings: ATCC 90028, ASSAY_TEST Inhibition of Fungal Growth, detection method Absorption (OD530), plate type 384well, NBS, CORNING #3640
Description: Antifungal activity against Candida albicans ATCC 90028 (CO-ADD:FG_001); MIC in YNB media using NBS plates, by OD630

Escherichia coli = test: microbe, parasite or virus in culture; settings: ATCC 25922, 18 h, ASSAY_TEST Inhibition of Bacterial Growth, detection method Absorption (OD600), MEDIA CAMHB, plate type 384well, NBS, CORNING #3640
Description: Antibacterial activity against Escherichia coli ATCC 25922 (CO-ADD:GN_001); MIC in CAMBH media using NBS plates, by OD(600)

Description for Cryptococcus neoformans: Antifungal activity against Cryptococcus neoformans H99 ATCC 208821 (CO-ADD:FG_002); MIC in YNB media using NBS plates, by Resazurin OD(600-570)

Compound | MIC (Pseudomonas aeruginosa) | MIC (Klebsiella pneumoniae) | MIC (Acinetobacter baumannii) | MIC (Staphylococcus aureus) | MIC (Candida albicans) | MIC (Escherichia coli) | MIC (Cryptococcus neoformans) | CC50 (HEK293)
CCOC(=O)/C(C#N)=C1\SS/C(=C(/C#N)C(=O)OCC)S1 | > 10 µM | > 10 µM | > 10 µM | > 10 µM | > 10 µM | > 10 µM | > 10 µM | > 10 µM
NC(=S)c1cn(C2OC(CO)C(O)C2O)c2ncnc(N)c12 (stereo not given) | > 10 µM | > 10 µM | > 10 µM | > 10 µM | 10 µM (≈ 3.25 µg/mL) | > 10 µM | > 10 µM | 0.521 µM
CCN1CCCC(Sc2nc3c(=S)n(C)c(=O)n(C)c3[nH]2)C1 (stereo not given) | > 10 µM | > 10 µM | > 10 µM | > 10 µM | > 10 µM | > 10 µM | > 10 µM | > 10 µM
C/C(=N/NC(=S)N1CC2CCC(CC2)C1)c1cnccn1 | > 10 µM | > 10 µM | > 10 µM | > 10 µM | 2.5 µM (≈ 0.759 µg/mL) | > 10 µM | > 10 µM | > 10 µM
COC12C(COC(N)=O)C3=C(C(=O)C(C)=C(N)C3=O)N1CC1C2N1C (stereo not given) | > 10 µM | > 10 µM | > 10 µM | 0.156 µM (≈ 0.0544 µg/mL) | > 10 µM | 5 µM (≈ 1.74 µg/mL) | > 10 µM | > 10 µM
O=Nc1c(-c2cccc([N+](=O)[O-])c2)nc2ncccn12 | > 10 µM | > 10 µM | > 10 µM | 0.312 µM (≈ 0.0841 µg/mL) | 0.625 µM (≈ 0.168 µg/mL) | > 10 µM | 2.5 µM (≈ 0.673 µg/mL) | > 10 µM
COC1C(OC(=O)c2ccc(C)[nH]2)C(O)C(Oc2ccc3c(O)c(NC(=O)c4ccc(O)c(CC=C(C)C)c4)c(=O)oc3c2Cl)OC1(C)C (stereo not given) | 10 µM (≈ 6.97 µg/mL) | > 10 µM | > 10 µM | ≤ 0.0781 µM | > 10 µM | > 10 µM | > 10 µM | 9.55 µM
O=C(/C=C/c1cccnc1)c1ccccc1O | > 10 µM | > 10 µM | > 10 µM | > 10 µM | > 10 µM | > 10 µM | > 10 µM | > 10 µM
Cc1c(N2CCCC2)cc2c(c1NC(=O)c1ccccc1Cl)C(C)(C)CC2(C)C | > 10 µM | > 10 µM | > 10 µM | > 10 µM | > 10 µM | > 10 µM | > 10 µM | > 10 µM
CC1=C(O)C(=O)C=C2C1=CC=C1[C@@]2(C)CC[C@@]2(C)[C@@H]3C[C@](C)(C(=O)O)CC[C@]3(C)CC[C@]12C [CELASTROL] | > 10 µM | > 10 µM | > 10 µM | 2.5 µM (≈ 1.13 µg/mL) | > 10 µM | > 10 µM | > 10 µM | 0.837 µM
COc1ccccc1/C=C/C(=O)/C=C/c1ccccc1O | > 10 µM | > 10 µM | > 10 µM | > 10 µM | > 10 µM | > 10 µM | > 10 µM | 3.95 µM
O=C(O)C(=O)Nc1nc[nH]n1 | > 10 µM | > 10 µM | > 10 µM | > 10 µM | > 10 µM | > 10 µM | > 10 µM | > 10 µM
CN(C)c1ccc(/N=N/c2ccccn2)cc1 | > 10 µM | > 10 µM | > 10 µM | > 10 µM | 10 µM (≈ 2.26 µg/mL) | > 10 µM | > 10 µM | > 10 µM
Cc1ccccc1NC(=O)NCCN1CC1 | > 10 µM | > 10 µM | > 10 µM | > 10 µM | > 10 µM | > 10 µM | > 10 µM | > 10 µM
O=C(Nc1ccc(Nc2ccncc2)cc1)c1ccc(Nc2ccnc3ccc([N+](=O)[O-])cc23)cc1 | > 10 µM | > 10 µM | > 10 µM | > 10 µM | > 10 µM | > 10 µM | 2.5 µM (≈ 1.19 µg/mL) | > 10 µM
COC1CC2\C=C(C)/C=C/C=C/C(=O)NC(c3ccccc3)C/C=C/CCC(O)CC(=O)C2=C1O (stereo not given) | > 10 µM | > 10 µM | > 10 µM | 0.156 µM (≈ 0.0746 µg/mL) | 1.25 µM (≈ 0.597 µg/mL) | > 10 µM | 5 µM (≈ 2.39 µg/mL) | 2.08 µM
CN1CCN(c2ccc([N+](=O)[O-])c3no[n+]([O-])c23)CC1 | > 10 µM | > 10 µM | > 10 µM | 2.5 µM (≈ 0.698 µg/mL) | > 10 µM | > 10 µM | > 10 µM | 0.755 µM
COC1CC(C)C(OC)c2cc(O)cc(c2O)NC(=O)/C(C)=C/C=C\C(C)C(OC(N)=O)/C(C)=C\C(C)C1OC (stereo not given) | > 10 µM | > 10 µM | > 10 µM | > 10 µM | > 10 µM | > 10 µM | > 10 µM | 1.09 µM
CCN(CC)c1ccc(C(=C2C=CC(=[N+](CC)CC)C=C2)c2ccc(N(CC)CC)cc2)cc1 | 2.5 µM | > 10 µM | > 10 µM | ≤ 0.0781 µM | ≤ 0.0781 µM | > 10 µM | 1.25 µM | 1.47 µM
O=C(Nc1ccc(C2=NCCN2)cc1)c1ccc(Cl)c(C(=O)Nc2ccc(C3=NCCN3)cc2)c1 | > 10 µM | > 10 µM | > 10 µM | > 10 µM | > 10 µM | > 10 µM | > 10 µM | > 10 µM

Second part, led by results:

MIC (Pseudomonas aeruginosa) | MIC (Klebsiella pneumoniae) | MIC (Acinetobacter baumannii) | MIC (Staphylococcus aureus) | MIC (Candida albicans) | MIC (Escherichia coli) | MIC (Cryptococcus neoformans) | Compound | CC50 (HEK293)
5 µM (≈ 1.52 µg/mL) | 5 µM (≈ 1.52 µg/mL) | > 10 µM | 1.25 µM (≈ 0.38 µg/mL) | > 10 µM | 1.25 µM (≈ 0.38 µg/mL) | > 10 µM | Nc1ccc(Cn2ccc3c4c(N)nc(N)nc4ccc32)cc1 | > 10 µM
> 10 µM | > 10 µM | > 10 µM | > 10 µM | > 10 µM | > 10 µM | > 10 µM | Nc1nc(N)c2c(ccc3[nH]ccc32)n1 | > 10 µM
> 10 µM | > 10 µM | > 10 µM | > 10 µM | 0.625 µM (≈ 0.108 µg/mL) | > 10 µM | 1.25 µM (≈ 0.216 µg/mL) | O=Cc1ccc(O)c2ncccc12 | > 10 µM
> 10 µM | > 10 µM | > 10 µM | > 10 µM | 10 µM (≈ 2.35 µg/mL) | > 10 µM | > 10 µM | O=[N+]([O-])c1cc([N+](=O)[O-])c2cccnc2c1O | > 10 µM
> 10 µM | > 10 µM | > 10 µM | > 10 µM | 10 µM (≈ 2.08 µg/mL) | > 10 µM | 10 µM (≈ 2.08 µg/mL) | O=[N+]([O-])c1cc(F)c2cccnc2c1O | > 10 µM
> 10 µM | > 10 µM | > 10 µM | > 10 µM | > 10 µM | > 10 µM | > 10 µM | Cc1ccc2ccc(C#N)cc2c1O | > 10 µM
> 10 µM | > 10 µM | > 10 µM | > 10 µM | > 10 µM | > 10 µM | > 10 µM | Cc1nc(/N=N/c2ccccc2)[nH]c1/N=N/c1ccccc1 | > 10 µM
> 10 µM | > 10 µM | > 10 µM | 0.156 µM (≈ 0.0498 µg/mL) | > 10 µM | 5 µM (≈ 1.59 µg/mL) | > 10 µM | Nc1nc(N)c2cc(Sc3ccc4ccccc4c3)ccc2n1 | 4.64 µM
> 10 µM | > 10 µM | > 10 µM | > 10 µM | > 10 µM | > 10 µM | 10 µM | Cc1c2cc[n+](CCN3CCCCC3)cc2c(C)c2c1[nH]c1ccc(O)cc12 | > 10 µM
> 10 µM | > 10 µM | > 10 µM | > 10 µM | 10 µM (≈ 2.55 µg/mL) | > 10 µM | 2.5 µM (≈ 0.638 µg/mL) | Oc1ccc2ccccc2c1/N=N/c1nccs1 | > 10 µM
